Source: US8969406B2, “Use of compound for inhibiting glutathione s-transferase omega 1 activity and method for synthesizing the same” (China Medical University, priority 2013, dated 2015)
Where two headings read alike, the source gives them in different places.

Tests used:
[1] = test system: human oralepithelial carcinoma cell line (KB); assay: In vitro cytotoxicity assay, cancer cell growth inhibition, KB cell
Excerpt: (§1) For evaluating the in vitro growth inhibitory concentrations ([…], μM) of the compound represented by Formula 1 of the present disclosure, human oralepithelial carcinoma cell line (KB), multidrug-resistant nasopharyngeal carcinoma cell line (KB-Vin), human lung adenocarcinoma cell line (A549), and prostate cancer cell line (DU145) were used in the following experiment. The GI50 values of Paclitaxel, an anticancer chemotherapy drug, were used as control.

[2] = test system: prostate cancer cell line (DU145); assay: In vitro cytotoxicity assay, cancer cell growth inhibition, DU145 cell
Excerpt: as §1

[3] = test system: human lung adenocarcinoma cell line (A549); assay: In vitro cytotoxicity assay, cancer cell growth inhibition, A549 cell
Excerpt: as §1

[4] = test system: multidrug-resistant nasopharyngeal carcinoma cell line (KB-Vin); assay: In vitro cytotoxicity assay, cancer cell growth inhibition, KB-Vin cell
Excerpt: as §1

GSTO1 = target: T1, GSTO1 (Homo sapiens, UniProt P78417); assay: Enzyme activity assay of GST omega 1 (GSTO1) with 4NPG substrate; type: biochemical; details: 2 nM GSTO1, 0.5 mM 4NPG, 30 min 25° C. pre-reaction, O.D.305
T1 sequence (P78417 1-241): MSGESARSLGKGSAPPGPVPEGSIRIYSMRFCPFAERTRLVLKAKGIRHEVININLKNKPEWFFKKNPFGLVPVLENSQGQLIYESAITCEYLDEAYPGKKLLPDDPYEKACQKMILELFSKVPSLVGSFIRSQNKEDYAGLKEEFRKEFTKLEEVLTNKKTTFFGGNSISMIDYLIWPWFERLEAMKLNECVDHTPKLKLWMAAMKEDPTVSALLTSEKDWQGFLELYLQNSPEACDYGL
Procedure: First, 100 μl mixture having 2 nM GSTO1, 100 mM Tris (pH 8.0), 1.5 mM EDTA, and 10 mM 2-mercaptoethanol were added into each well of an UV-penetrable 96-well culture plate. Besides, 100 μl buffer having 100 mM Tris (pH 8.0), 1.5 mM EDTA, and 10 mM 2-mercaptoethanol were used as blank control.
Then, 4NPG were added to each of the aforementioned mixture to a final concentration of 0.5 mM.

[5] = read-out: In vitro cytotoxicity assay: GI50 (μM) DU145 cell, DU145 cell
[6] = read-out: In vitro cytotoxicity assay: GI50 (μM) A549 cell, A549 cell
[7] = Homo sapiens, DU-145, read-out: In vitro cytotoxicity assay: GI50 (μM) DU145 cell
[8] = Homo sapiens, A549, read-out: In vitro cytotoxicity assay: GI50 (μM) A549 cell

Compound: O=C1C=CC(O)(c2cc(=O)c3c(ccc4cc(OCCN5CCCC5)ccc43)o2)C=C1 [side chain No. 18]
- In vitro cytotoxicity assay: GI50 (μM) KB cell [1]: 0.552 µM
- GI50 [2]: 0.693 µM
- GI50 [3]: 0.628 µM
- In vitro cytotoxicity assay: GI50 (μM) KB-Vin cell [4]: 1.108 µM

Compound: CCC(C)CCCC(C)CCOc1ccc2c(ccc3oc(C4(O)C=CC(=O)C=C4)cc(=O)c32)c1 (centres unmarked) [side chain No. 13]
- In vitro cytotoxicity assay: GI50 (μM) KB cell [1]: 1.115 µM
- GI50 [2]: 1.26 µM
- GI50 [3]: 4.27 µM
- In vitro cytotoxicity assay: GI50 (μM) KB-Vin cell [4]: 1.883 µM

Compound: O=C1C=CC(O)(c2cc(=O)c3c(ccc4cc(OCCN5CCCCC5)ccc43)o2)C=C1 [side chain No. 17]
- In vitro cytotoxicity assay: GI50 (μM) KB cell [1]: 0.499 µM
- GI50 [2]: 0.541 µM
- GI50 [3]: 0.483 µM
- In vitro cytotoxicity assay: GI50 (μM) KB-Vin cell [4]: 0.675 µM

Compound: O=C1C=CC(O)(c2cc(=O)c3c(ccc4cc(O)ccc43)o2)C=C1 [side chain No. 19]
- In vitro cytotoxicity assay: GI50 (μM) KB cell ([1]; KB cell): 0.944 µM
- GI50 [2, 5]: 0.709 µM
- GI50 [3, 6]: 0.806 µM
- In vitro cytotoxicity assay: GI50 (μM) KB-Vin cell ([4]; KB-Vin cell): 0.738 µM

Compound: O=C1C=CC(O)(c2cc(=O)c3c(ccc4cc(OC(=O)N5CCOCC5)ccc43)o2)C=C1 [side chain No. 6]
- In vitro cytotoxicity assay: GI50 (μM) KB cell [1]: 0.607 µM
- GI50 [2]: 0.617 µM
- GI50 [3]: 0.603 µM
- In vitro cytotoxicity assay: GI50 (μM) KB-Vin cell [4]: 0.64 µM

Compound: CC(C)CCOc1ccc2c(ccc3oc(C4(O)C=CC(=O)C=C4)cc(=O)c32)c1 [side chain No. 11]
- In vitro cytotoxicity assay: GI50 (μM) KB cell ([1]; KB cell): 0.2 µM
- GI50 [2, 7]: 0.231 µM
- GI50 [3, 8]: 0.382 µM
- In vitro cytotoxicity assay: GI50 (μM) KB-Vin cell ([4]; KB-Vin cell): 0.269 µM

Compound: COCOc1ccc2c(ccc3oc(C4(O)C=CC(=O)C=C4)cc(=O)c32)c1 [side chain No. 10]
- In vitro cytotoxicity assay: GI50 (μM) KB cell ([1]; KB cell): 0.786 µM
- GI50 [2, 5]: 0.865 µM
- GI50 [3, 6]: 0.819 µM
- In vitro cytotoxicity assay: GI50 (μM) KB-Vin cell ([4]; KB-Vin cell): 0.766 µM

Compound: O=C1C=CC(O)(c2cc(=O)c3c(ccc4cc(OC(=O)N5CCCCC5)ccc43)o2)C=C1 [side chain No. 7]
- In vitro cytotoxicity assay: GI50 (μM) KB cell [1]: 0.615 µM
- GI50 [2]: 0.522 µM
- GI50 [3]: 0.536 µM
- In vitro cytotoxicity assay: GI50 (μM) KB-Vin cell [4]: 0.619 µM

Compound: O=C1C=CC(O)(c2cc(=O)c3c(ccc4ccccc43)o2)C=C1 [Compound main structure]
- In vitro cytotoxicity assay: GI50 (μM) KB cell ([1]; KB cell): 0.865 µM
- GI50 [2, 7]: 0.799 µM
- GI50 [3, 8]: 0.763 µM
- In vitro cytotoxicity assay: GI50 (μM) KB-Vin cell ([4]; KB-Vin cell): 0.674 µM

Compound: COc1ccc2c(ccc3oc(C4(O)C=CC(=O)C=C4)cc(=O)c32)c1 [compound B]
- inhibitory effect against GSTO1 enzyme activity (competition with 4NPG, FIG. 1) (GSTO1): slight

Compound: CC(C)N(CCOc1ccc2c(ccc3oc(C4(O)C=CC(=O)C=C4)cc(=O)c32)c1)C(C)C [side chain No. 16]
- In vitro cytotoxicity assay: GI50 (μM) KB cell [1]: 0.55 µM
- GI50 [2]: 0.62 µM
- GI50 [3]: 0.584 µM
- In vitro cytotoxicity assay: GI50 (μM) KB-Vin cell [4]: 0.682 µM

Compound: CC(=O)O[C@H]1C(=O)[C@@]2(C)[C@H]([C@H](OC(=O)c3ccccc3)[C@]3(O)C[C@H](OC(=O)[C@H](O)[C@@H](NC(=O)c4ccccc4)c4ccccc4)C(C)=C1C3(C)C)[C@]1(OC(C)=O)CO[C@@H]1C[C@@H]2O [Paclitaxel, reference compound]
- GI50 KB cell (control) ([1]; KB cell): 0.00464 µM
- GI50 ([2]; Homo sapiens, DU-145, read-out: GI50 DU145 cell (control)): 0.003 µM
- GI50 ([3]; Homo sapiens, A549, read-out: GI50 A549 cell (control)): 0.00356 µM
- GI50 KB-Vin cell (control) ([4]; KB-Vin cell): >1 µM

Compound: COc1ccc2c(ccc3oc(C4(O)C=CC(=O)C=C4)cc(=O)c32)c1 [side chain No. 8]
- In vitro cytotoxicity assay: GI50 (μM) KB cell ([1]; KB cell): 0.871 µM
- GI50 [2, 5]: 0.707 µM
- GI50 [3, 6]: 0.811 µM
- In vitro cytotoxicity assay: GI50 (μM) KB-Vin cell ([4]; KB-Vin cell): 0.692 µM

Compound: CCN(CC)CCOc1ccc2c(ccc3oc(C4(O)C=CC(=O)C=C4)cc(=O)c32)c1 [side chain No. 15]
- In vitro cytotoxicity assay: GI50 (μM) KB cell [1]: 0.644 µM
- GI50 [2]: 0.685 µM
- GI50 [3]: 0.551 µM
- In vitro cytotoxicity assay: GI50 (μM) KB-Vin cell [4]: 1.325 µM

Compound: CN(C)CCOc1ccc2c(ccc3oc(C4(O)C=CC(=O)C=C4)cc(=O)c32)c1 [side chain No. 14]
- In vitro cytotoxicity assay: GI50 (μM) KB cell ([1]; KB cell): 0.683 µM
- GI50 [2, 5]: 0.808 µM
- GI50 [3, 6]: 0.754 µM
- In vitro cytotoxicity assay: GI50 (μM) KB-Vin cell ([4]; KB-Vin cell): 0.841 µM

Compound: O=C1C=CC(O)(c2cc(=O)c3c(O)cc(O)cc3o2)C=C1 [compound A]
- inhibitory effect against GSTO1 enzyme activity (competition with 4NPG, FIG. 1) (GSTO1): slight

Compound: CC(C)CCCC(C)CCOc1ccc2c(ccc3oc(C4(O)C=CC(=O)C=C4)cc(=O)c32)c1 (centres unmarked) [side chain No. 12]
- In vitro cytotoxicity assay: GI50 (μM) KB cell ([1]; KB cell): 0.067 µM
- GI50 [2, 7]: 0.065 µM
- GI50 [3, 8]: 0.233 µM
- In vitro cytotoxicity assay: GI50 (μM) KB-Vin cell ([4]; KB-Vin cell): 0.335 µM
